Values of other authors in patent US20210077665A1, “METHODS AND DEVICES FOR LYMPHATIC TARGETING” (priority 2005, published 2021).

Experiments:
[1] = at 44 h; pleural injection

Row | IC50 (H460 lung cancer cells) [nM] | Compound | uptake in mediastinal nodes [1] [%]
1 | 5 | CC(=O)O[C@H]1C(=O)[C@@]2(C)[C@H]([C@H](OC(=O)c3ccccc3)[C@]3(O)C[C@H](OC(=O)[C@H](O)[C@@H](NC(=O)c4ccccc4)c4ccccc4)C(C)=C1C3(C)C)[C@]1(OC(C)=O)CO[C@@H]1C[C@@H]2O [Paclitaxel, paclitaxel] | 
2 |  | 111In-avidin: 111In labeled avidin injected in the pleural space (literature) | 3.3
